This is an account of results in US4940716A, “2-amino-tetrahydro-isoquinolene derivatives and a process for the preparation thereof and pharmaceutical compositions containing same” (Chinoin Gyogyszer es Vegyeszeti Termekek Gyara Rt, priority 1987, dated 1990).

The structures appear in SMILES notation.

The assay is described as follows: Salidiuretic screening test in rats (Lipschitz method modified by Kagawa and Kalm), 5 mg/kg p.o. Particulars: for K secretion, % of simultaneously measured control / Na secretion, % of simultaneously measured control / Water secretion, % of simultaneously measured control / secreted Na/K: single oral dose 5 mg/kg, rat; for Na/K ratio (in words) / secretion of urine amount and alkali metal ion: 5 mg/kg per os, rats; for secretion of urine amount and alkali metal ion: compared with dihydrochlorothiazide and furosemid. The class given is in vivo, rats (LATI CFY strain, male). The procedure: Significant diuretic compounds containing an isoquinoline ring system have not been disclosed and therefore it is surprising that the compounds of the Formula (I) show a significant diuretic and saluretic activity. In a screening test carried out in rats (administered per os 5 mg/kg) the compounds according to the invention were compared with dihydrochlorothiazide and furosemid. […] Screen tests were carried out in masculine rats belonging to […] strain weighing at an average 240 g. The animals obtained standard rat nourishment. 16 hours before the experiment the animals were deprived of nourishment but the liquid uptake was not restricted. In order to show diuretic activity the procedure of Lipschitznek modified by Kagawa and Kalm was used. (Arch. Int. Pharmacodyn. 137, 241-249 (1962). The animals were placed into a metabolism cage. The urine collection was carried out in 0-6 and 0-24 hour periods. The control animals were administered 25 cm^3 /kg physiological salt solution through a gastric tube. The test substance was administered to the animals through a gastric tube at a dose of 5 mg/kg in physiological salt solution of an amount corresponding to the amount of physiological salt solution given to the control animals. After 6 hours the animals were administered the same volume of physiological saline solution as the volume excreted with 0-6 hours through a gastric tube. The amount of secreted urine between 0 to 6 and 0 to 24 hours was measured and calculated together with the concentration of sodium and potassium and the Na/K ratio of the urine secreted within a given period. Simultaneously with each test control groups treated with physiological salt solution and hypothiazide were used. Effect of a single oral dose of 5 mg/kg of the compouns on the secretion of water, sodium and potassium within 0-6 and 0-24 hours in the % of the simultaneously measured control values and on the secreted Na/K.

`NS(=O)(=O)c1cc(C(=O)NN2CCc3ccccc3C2)ccc1Cl` [Example 1, 2-[(3'-sulfamoyl-4'-chloro)-benzoyl]-amino-1,2,3,4-tetrahydro-isoquinoline]: the “Na/K ratio (in words)” value is “favorable”; the “secretion of urine amount and alkali metal ion” value is “particularly advantageous”. In addition, where the note is “0-6 h”, the “K secretion, % of simultaneously measured control” value (from here on “K secretion, % of simultaneously”) turned out to be 145%; the “Na secretion, % of simultaneously measured control” value (“Na secretion, % of simultaneously” for short) worked out at 260%; the “Water secretion, % of simultaneously measured control” value (from here on “Water secretion, % of simultaneously”) is on record as 216%. Also, the “secreted Na/K” value (0-6 h, control 1.81) turned out to be 9.09. Under “0-24 h”, the “K secretion, % of simultaneously” value worked out at 82%; the “Na secretion, % of simultaneously” value was 152%; the “Water secretion, % of simultaneously” value came out at 148%. The “secreted Na/K” value (0-24 h, control 2.45) was found to be 5.94.
For the compound `CC1c2ccccc2CCN1NC(=O)c1ccc(Cl)c(S(N)(=O)=O)c1` (stereo not drawn) [Example 2, 1-methyl-2-[(3'-sulfamoyl-4'-chloro)-benzoyl]-amino-1,2,3,4-tetrahydro-isoquinoline], the “Na/K ratio (in words)” value is reported as “favorable”; the “secretion of urine amount and alkali metal ion” value is “particularly advantageous”. Besides, for the setting “0-6 h”, the “K secretion, % of simultaneously” value came out at 170%; the “Na secretion, % of simultaneously” value worked out at 279%; the “Water secretion, % of simultaneously” value was 233%. For the setting “0-6 h, control 1.81”, the “secreted Na/K” value is listed as 7.56. Moreover, for the setting “0-24 h”, the “K secretion, % of simultaneously” value is listed as 100%; the “Na secretion, % of simultaneously” value came to 151%; the “Water secretion, % of simultaneously” value is on record as 154%. Also, the “secreted Na/K” value (0-24 h, control 2.45) was determined as 5.38.
`COc1cc2c(cc1OC)C(C)N(NC(=O)c1ccc(Cl)c(S(N)(=O)=O)c1)CC2` (stereo not drawn) [Example 3, 1-methyl-2-[(3'-sulfamoyl-4'-chloro-benzoyl)-amino]-6,7-dimethoxy-1,2,3,4-tetrahydro-isoquinoline-monohydrate]: for the setting “0-6 h”, the “K secretion, % of simultaneously” value was 104%; the “Na secretion, % of simultaneously” value is 186%; the “Water secretion, % of simultaneously” value worked out at 147%. The “secreted Na/K” value (0-6 h, control 1.81) was 4.74. Besides, where the note is “0-24 h”, the “K secretion, % of simultaneously” value is recorded as 84%; the “Na secretion, % of simultaneously” value is given as 121%; the “Water secretion, % of simultaneously” value came out at 112%. The “secreted Na/K” value (0-24 h, control 2.45) turned out to be 3.99.
As to `NS(=O)(=O)c1cc2c(cc1Cl)NCNS2(=O)=O` [Hypothiazide, reference compound], under “0-6 h”, the “K secretion, % of simultaneously” value came to 117%; the “Na secretion, % of simultaneously” value is recorded as 187%; the “Water secretion, % of simultaneously” value is reported as 159%. The “secreted Na/K” value (0-6 h, control 1.81) came to 3.90. Also, under “0-24 h”, the “K secretion, % of simultaneously” value stood at 109%; the “Na secretion, % of simultaneously” value was 123%; the “Water secretion, % of simultaneously” value is 119%. Also, where the note is “0-24 h, control 2.45”, the “secreted Na/K” value came to 3.50.
